The species entered for series [1] is Mus musculus. Nature of the series: Acute toxicity measured as median lethal dose in mice; Range is 80-90. In kind it is organism-based. The conditions noted are these: in vivo.
The nature of series [2]: Acute toxicity measured as median lethal dose in mice; Range is 40-45. In kind it is organism-based. The settings on record: mouse, in vivo.
The species named for series [3] is Mus musculus. The experiment in a line: Duration of analgesic action in mice was determined; B = brief, < 5 min. In kind it is functional, organism-based.
The species named for series [4] is Mus musculus. The experiment in a line: Speed of induction of analgesia in mice was determined; I = immediate, <10 s. In kind it is functional, organism-based.
Series [5] is filed under the species Mus musculus. The experiment in a line: Hypnotic activity was measured as dose which causes loss of righting reflex for a minimum period of 30s in 50% of mice; Range is 1-1.5. It counts as functional.
A further series can be described thus: in vivo. The settings on record: mouse.
Series [6] is filed under the species Mus musculus. Nature of the series: Hypnotic activity was measured as dose which causes loss of righting reflex for a minimum period of 30s in 50% of mice; Range is 5-10. In kind it is functional.
Series [7] can be described thus: Acute toxicity measured as median lethal dose in mice; […]. It counts as organism-based. The settings on record: mouse, in vivo.
The species named for series [8] is Mus musculus. Nature of the series: Hypnotic activity was measured as dose which causes loss of righting reflex for a minimum period of 30s in 50% of mice. In kind it is functional.
The species entered for series [9] is Mus musculus. The experiment in a line: Hypnotic activity was measured as dose which causes loss of righting reflex for a minimum period of 30s in 50% of mice; Range is 30-40. It counts as functional.
Series [10] in a line: Acute toxicity measured as median lethal dose in mice; Range is 140-160. It counts as organism-based. The settings on record: mouse, in vivo.
For series [11], the species on record is Mus musculus. The experiment in a line: Speed of induction of analgesia in mice was determined; VS = very slow, > 15s. It counts as functional, organism-based.
Series [12] is described as follows: Acute toxicity measured as median lethal dose in mice. In kind it is organism-based. The conditions noted are these: mouse, in vivo.
Series [13] is filed under the species Mus musculus. Nature of the series: Hypnotic activity was measured as dose which causes loss of righting reflex for a minimum period of 30s in 50% of mice; Range is 60-80. It counts as functional.

`CCCC(C)C1(CC)C(=O)[N-]C(=S)NC1=O.[Na+]` (stereo in doubt; form 1) [THIOPENTAL SODIUM] came in with an LD50 in the series listed under Mus musculus [1] of 80 mg/kg.

With `CCOC(=O)c1cncn1[C@H](C)c1ccccc1` [ETOMIDATE], the LD50 in series [2] came to 40 mg/kg. Also, the Duration of action entry in the series filed under Mus musculus [3] is reported as “Brief duration”. Also, the Speed of induction result in the series filed under Mus musculus [4] was “Immediate induction”. The HD50 in the series listed under Mus musculus [5] is 1 mg/kg.

With `CC(C)c1cccc(C(C)C)c1O` [PROPOFOL], the Duration of action entry in the series filed under Mus musculus [3] is reported as “Brief duration”. In addition, the Speed of induction result in the series filed under Mus musculus [4] is on record as “Immediate induction”. Besides, the LD50 in the series “in vivo” was found to be 50 mg/kg. The molecule also registered an HD50 in the series listed under Mus musculus [6] of 5 mg/kg.

`Cc1cc(C(C)(C)C)ccc1O` returned an LD50 in [7] of 180 mg/kg. The HD50 in the series listed under Mus musculus [8] came out at 80 mg/kg.

On to `Cc1cccc(C2CCCCC2)c1O`, for which, in the series filed under Mus musculus [9], the HD50 is 30 mg/kg. Also, the Duration of action entry in the series listed under Mus musculus [3] was “Brief duration”. In series [10], this molecule showed an LD50 of 140 mg/kg. Further, the Speed of induction entry in the series filed under Mus musculus [11] is “Very slow”.

In [12], `CCc1c(C)cc(C)c(CC)c1O` showed an LD50 of 160 mg/kg. This molecule also had an HD50 in the series listed under Mus musculus [13] of 60 mg/kg.

The values above are taken from ChEMBL document CHEMBL1121624, “Synthesis, biological evaluation, and preliminary structure-activity considerations of a series of alkylphenols as intravenous anesthetic agents” (J Med Chem, 1980).
